Legend:
[1] = tested on: human liver microsomes; assay: In vitro human liver microsomal (HLM) stability assay; format: in vitro ADME; settings: human liver microsomes 1 mg/mL, 1 μM compound, 37° C., vs non-isotopically enriched drug
Procedure: Liver microsomal stability assays were conducted at 1 mg per mL liver microsome protein with an NADPH-generating system in 2% NaHCO3 (2.2 mM NADPH, 25.6 mM glucose 6-phosphate, 6 units per mL glucose 6-phosphate dehydrogenase and 3.3 mM MgCl2). Test compounds were prepared as solutions in 20% acetonitrile-water. These solutions were added to the assay mixture (final assay concentration 1 μM) and incubated at 37° C. Final concentration of acetonitrile in the assay should be <1%. Aliquots (50 μL) were collected at the these timpoints: […], and 1 hours, and diluted with ice cold acetonitrile (200 μL) to stop the reactions. Samples were centrifuged at 12,000 RPM for 10 minutes to precipitate proteins. Supernatants were transferred to micro centrifuge tubes and stored for LC/MS/MS analysis of the degradation half-life of the test compounds.
Results of in vitro Human Liver Microsomal (HLM) Stability Assay

[2] = 400 mg oral dose under fasted conditions; cited from earlier work

| Structure (SMILES) | % increase of HLM degradation half-life, bin 0%-50% [1] | further results |
| --- | --- | --- |
| Cc1cc(C)cc(OCC2CNC(=O)O2)c1 (centres unmarked) [Example 1, 5-[(3,5-dimethylphenoxy)methyl]oxazolidin-2-one] | – | % increase of HLM degradation half-life, bin −25%-0% [1]: + (−25%-0%); terminal half-life [2]: 9.0 ± 4.8 h; time of peak plasma concentrations [2]: approximately 3 hours |
| [2H]C([2H])([2H])c1cc(OCC2CNC(=O)O2)cc(C([2H])([2H])[2H])c1 (centres unmarked) [Example 2, 5-[(3,5-dimethyl-d6-phenoxy)methyl]oxazolidin-2-one] | + (0%-50%) | – |
| [2H]C([2H])(Oc1cc(C)cc(C)c1)C1CNC(=O)O1 (centres unmarked) [Example 3, 5-[(3,5-dimethyl-phenoxy)methyl-d2]oxazolidin-2-one] | + (0%-50%) | – |
| [2H]C([2H])([2H])c1cc(OC([2H])([2H])C2CNC(=O)O2)cc(C([2H])([2H])[2H])c1 (centres unmarked) [Example 4, 5-[(3,5-Dimethyl-d6-phenoxy)methyl-d2]oxazolidin-2-one] | + (0%-50%) | – |

More lines, main results first:

| % increase of HLM degradation half-life, bin 0%-50% [1] | Structure (SMILES) | further results |
| --- | --- | --- |
| + (0%-50%) | [2H]C1([2H])NC(=O)OC1([2H])C([2H])([2H])Oc1cc(C)cc(C)c1 (centres unmarked) [Example 5, 5-[(3,5-Dimethylphenoxy)methyl-d2]oxazolidin-4,4,5-d3-2-one] | – |
| + (0%-50%) | [2H]C([2H])([2H])c1cc(OC([2H])([2H])C2([2H])OC(=O)NC2([2H])[2H])cc(C([2H])([2H])[2H])c1 (centres unmarked) [Example 6, 5-[(3,5-Dimethyl-d6-phenoxy)methyl-d2]oxazolidin-4,4,5-d3-2-one] | – |

Source: US20090270469A1, “SUBSTITUTED OXAZOLIDINONES” (AUSPEX PHARMACEUTICALS, INC., priority 2008, published 2009)
